PubChem BioAssay AID1996
In brackets after ≈: the same amount, converted by molar mass.

Settings: buffer; pH 7.4; 200.0 µM

solubility kinetic [µg/mL]	Compound
> 49.5	O=C(COC(=O)c1c(Cl)cccc1Cl)NC1CCCCC1
38.2 (≈ 134 µM)	Cc1nc(C)c(Oc2cccc(C(F)(F)F)c2)c(=O)[nH]1
> 45.2	Cc1ccc2[nH]c(CCN(C)C)c(CN3CCOCC3)c2c1
> 47.6	COc1ccc(CCC(=O)OCC(=O)c2ccc[nH]2)cc1OC
> 32.7	CCn1c(C)nc2cc(C(=O)OC)ccc21
37.9	Cl.O=C(CCN1CCc2ccccc2C1)Nc1ccc(F)c(F)c1
> 48.8	CC(=O)Nc1ccc(S(=O)(=O)N(C)C2CCN(C)CC2)cc1
0.8 (≈ 2.28 µM)	CC(C)(C)N(Cc1ccccc1)C(=O)CN1C(=O)c2ccccc2C1=O
> 47.3	Cl.c1cc(CNC23CC4CC(CC(C4)C2)C3)ccn1
> 43.4	O=C(NCCCn1ccnc1)c1cc2c(s1)CCCC2
22.6 (≈ 72.3 µM)	COc1ccc(-c2cn(-c3ccccc3)c(=S)[nH]2)cc1OC
28.5 (≈ 115 µM)	CC1(C)OC(=O)C(=CNc2ccccn2)C(=O)O1
> 41.8	COc1ccc(NC(=O)c2ccc(Cl)cc2)c[n+]1[O-]
14.7 (≈ 35 µM)	COc1ccc(NC(=O)c2ccc3c(c2)OCO3)cc1S(=O)(=O)N1CCOCC1
> 37.2	Cc1cccc(NC(=O)c2cccnc2Cl)n1
23.2 (≈ 73.4 µM)	O=C(CNC(=O)c1ccccc1F)Nc1ccc2c(c1)OCO2
> 47.5	CCCN1C2CCCC1CC(NC(=O)c1ccccc1OC)C2 (configuration not stated)
5.8 (≈ 18.6 µM)	O=C(/C=C/c1cccc(F)c1)c1ccc(N2CCOCC2)cc1
> 54.9	CC1Cc2ccccc2N1NC(=O)c1ccc(Cl)c(S(N)(=O)=O)c1 (configuration not stated)
3.3 (≈ 10.8 µM)	Cc1cccc(-c2onc3ccc(C(=O)/C=C/N(C)C)cc23)c1
40.4 (≈ 126 µM)	CC1(C)C/C(=N\O)C(C(O)c2cccc([N+](=O)[O-])c2)C(C)(C)N1 (configuration not stated)
43.5 (≈ 140 µM)	Cc1ccc(NS(=O)(=O)c2cc(N)ccc2Cl)c(C)c1

solubility kinetic [µg/mL]	Compound
0.6 (≈ 2.12 µM)	Cc1cc(NC(=O)C(=O)c2cn(C)c3ccccc23)no1
5.3 (≈ 18.6 µM)	COc1ccc(NC(=O)Nc2ccc3nonc3c2)cc1
0.8 (≈ 2.69 µM)	CC(=O)Nc1ccc(NC(=O)Nc2cc(C)cc(C)c2)cc1
33.5 (≈ 104 µM)	CCOc1cc(C2C(C#N)=C(N)Oc3cc(N)ccc32)ccc1O (configuration not stated)
3.8 (≈ 11.6 µM)	O=C(CSc1nc2ccccc2c(=O)[nH]1)Nc1ccccc1O
> 29.6	C[N+](C)(C)CC(O)CC(=O)O.[Cl-] (configuration not stated)
46.8 (≈ 146 µM)	CN(C)Cc1c(O)ccc2c1O/C(=C\C=C\c1ccccc1)C2=O
< 0.4	O=C(/C=C/c1ccco1)Nc1nc(-c2ccc(F)c(F)c2)cs1
16.4 (≈ 58.8 µM)	CCCc1cc(C(=O)Nc2cccc(Cl)c2C)no1
> 52.3	Cc1ccc2nc(N3CCN(CCO)CC3)nc(-c3ccccc3)c2c1
> 38.1	O=c1[nH]c2ccccc2n2c(C(F)(F)F)nnc12
9.7 (≈ 35.9 µM)	CCn1cc(C2=NC(CC(C)C)CO2)c2ccccc21 (configuration not stated)
39 (≈ 139 µM)	O=C1OC(C(=O)NCc2ccccc2)Cc2ccccc21 (configuration not stated)
2.8 (≈ 6.82 µM)	O=C(Nc1ccc(Br)cc1Cl)c1ccc(OCC2CCCO2)cc1 (configuration not stated)
< 0.3	CC(=O)c1ccc(NC(=S)NC(=O)/C=C/c2ccccc2)cc1
< 0.7	Cc1ccc2[nH]cc(S(=O)(=O)c3ccc(C)c(C)c3)c(=O)c2c1
> 11.4	NC(N)=S
> 44.4	Cc1cc(C)c(S(=O)(=O)Cc2ccccc2)c(Cl)n1
44.3 (≈ 147 µM)	CS(=O)(=O)N(CC(=O)N1CCCC1)c1cccc(F)c1
35.6 (≈ 125 µM)	C/C(=C\c1ccc(F)cc1)C(=O)c1c(C)cc(C)[nH]c1=O
> 46.2	Cc1cc(C(=O)OCC(=O)N2CCOCC2)ccc1[N+](=O)[O-]
1.2 (≈ 4.81 µM)	Cc1cn(CC(=O)c2ccccc2)c2ccccc12

solubility kinetic [µg/mL]	Compound
> 55.6	COc1cc(/C=N/NC(=O)CNC(=O)c2ccncc2)ccc1OC(C)=O
> 45.1	O=C(Cc1c(F)cccc1Cl)NCCN1CCOCC1
39.8 (≈ 108 µM)	O=C(CNC(=O)c1ccc(Br)o1)NCCc1ccc(F)cc1
< 0.4	COC(=O)c1cc(Nc2cc(C)c3c(O)cccc3n2)cc(C(=O)OC)c1
3.9 (≈ 11.1 µM)	O=C(Cn1c(=S)[nH]c2ccccc2c1=O)N1CCc2ccccc2C1
> 48.8	CC1CCCN(C2(O)C(=O)Nc3ccc(Br)cc32)C1 (configuration not stated)
21.2 (≈ 62.5 µM)	COc1ccccc1NC(=O)CC(c1ccc(F)cc1)c1ccco1 (configuration not stated)
> 38.4	CC(=O)N1CCN(c2ncnc3ccccc23)CC1
47.7 (≈ 145 µM)	O=C(O)CSc1nc2ccccc2nc1Cc1ccccc1F
7 (≈ 23.2 µM)	Cn1c(SCc2ccccc2)nc2c1c(=O)[nH]c(=O)n2C
25.5 (≈ 117 µM)	O=[N+]([O-])c1ccc(Oc2cccnc2)nc1
2.8 (≈ 7.88 µM)	CSc1nsc(SCC(=O)Nc2ccc(OC(C)=O)cc2)n1
2.4 (≈ 7.18 µM)	Cn1c(N)c(C(=O)Nc2c(Cl)cccc2Cl)sc1=S
45.7 (≈ 122 µM)	COc1ccc(CNc2cc(NCCCO)c([N+](=O)[O-])c3nonc23)cc1
> 45.5	O=C(O)c1ccc(C2SCC(=O)N2Cc2ccco2)cc1 (configuration not stated)
> 43.6	Cc1ccc(C(=O)NC(=O)CSc2nncn2C)cc1
7.8 (≈ 22.8 µM)	O=C(Cc1ccc(Br)cc1)Nc1ncc([N+](=O)[O-])s1
11.9 (≈ 34.4 µM)	CC(=O)c1c(C)[nH]c(C(=O)COC(=O)C2(C)CC2(Cl)Cl)c1C (configuration not stated)
> 47.3	O=C(NCCc1ccc(O)c(O)c1)C1COc2ccccc2O1 (configuration not stated)
> 53.6	O=C(O)CCC(=O)NN1C(=O)c2ccccc2NC1c1ccc(F)cc1 (configuration not stated)
> 48.1	O=C(CCC1CCN(Cc2ccccc2Cl)CC1)NC1CC1
21.5 (≈ 75.9 µM)	CC(=O)Oc1ccc(C(=O)NCCc2ccccc2)cc1

solubility kinetic [µg/mL]	Compound
> 40.2	N#Cc1ccc(NCCc2ccccn2)c([N+](=O)[O-])c1
5.5 (≈ 16.6 µM)	COc1ccc(C(=O)CC(=O)C(=O)Nc2ccc(Cl)cc2)cc1
42 (≈ 136 µM)	CC(C)C1(CCNC(=O)c2cccs2)CCOC(C)(C)C1 (configuration not stated)
> 39.3	O=C1C2CC(O)CN2C(=S)N1Cc1ccccc1 (configuration not stated)
> 52	CC(NC(=O)COc1ccccc1)C(=O)NCc1ccccc1Cl (configuration not stated)
> 30.5	O=C1NC2(CCCC2)Oc2ccccc21
37.1 (≈ 137 µM)	CC(NC(=O)CSc1ccccc1)c1ccccc1 (configuration not stated)
0.8 (≈ 2.43 µM)	CSc1nc(-c2ccccc2)nc(NC(=O)C(C)C)c1C(C)=O
33.7 (≈ 115 µM)	CCOC(=O)C(=O)c1c(-c2ccccc2)nc2ccccn12
23.2 (≈ 138 µM)	NC1=Nc2cccc3cccc1c23
> 45.7	CN(C)/C=C/C(=O)c1ccn(S(=O)(=O)c2ccccc2)c1
12.8 (≈ 47.7 µM)	Nc1nc(-c2ccc(Oc3ccccc3)cc2)cs1
> 52.3	Fc1ccccc1-c1nc2nc3ccccc3nc2n1CC1CCCO1 (configuration not stated)
> 41.2	Cc1ccc(C)c(NC(=O)CCN2CCC(C)CC2)c1
7.4 (≈ 28.4 µM)	N#Cc1cnc(NOCc2ccc(Cl)cc2)nc1
32.5 (≈ 74.6 µM)	NS(=O)(=O)c1cccc(NC(=O)COC(=O)CC2Sc3ccccc3NC2=O)c1 (configuration not stated)
8.8 (≈ 27.2 µM)	COc1ccc(CN(C(=O)c2cccs2)c2ccccc2)cc1
20.6 (≈ 61.2 µM)	C1CN(c2nc(N3CCOCC3)nc(N3CCOCC3)n2)CCO1
> 36	Cc1ccc(C(=O)N/N=C\c2ccccn2)cn1

Compound	solubility kinetic [µg/mL]
CCC(C(=O)Nc1ccc(Cl)cc1)N1CCCC1=O (configuration not stated)	41.3 (≈ 147 µM)
CC(=O)N1CCCSC1=Nc1ccccc1	> 35.1
